Earlier results in patent US6511676B1 (priority 1999, dated 2003).

What was measured:
testicular cancers = conditions: in vivo
[1] = tested on: epithelial ovarian carcinoma; conditions: oral, 61 patients with cis- or carboplatin resistance

Row | Compound | testicular cancers cured (testicular cancers) | objective response rate [1] [%]
1 | N.N.[Cl][Pt][Cl] [cisplatin, Cis-diamminedichloroplatinum(II)] | More than 90% | 
2 | CN(C)c1nc(N(C)C)nc(N(C)C)n1 [hexamethylmelamine] |  | 14
